pIC50: −log10 of the molar value.
Assays:
BV2 cells [1] = test: Immunocytochemistry (ICC) in BV2 cells; format: cell-based, murine
Protocol: ICC was performed following previously published articles.^[ [36] ^] Briefly, BV2 cells were seeded and grown overnight in a LabTek 8‐well chamber wells having ≈100 k cells well^−1. […] Discarded the media after 3 h, washed each well carefully with 150–300 µL of PBS (2x), and fixed with 4% PFA for 20 min at r.t. After that, washed each well again with 150–300 µL of PBS (2x) at r.t and incubated with blocking buffer (5% Donkey serum with 0.1% Triton‐X‐100 in PBS). Aspirate the blocking buffer and add 150 µL of primary antibody in each well and keep it at 4 °C for overnight shaking. Washed with washing buffer (PBS containing 0.1% Triton‐X‐100, 0.05% Tween‐20) twice and incubated with specific secondary antibody in each of the wells with gently shaking for 2 h at r.t. Discarded secondary solution and washed with washing buffer twice and incubated 10 min with 2 nM of Hoechst solution for another 10 min at r.t, washed with PBS (two times) and finally mounted with Prolong Gold antifade reagent, dried at r.t, and covered with a cover slip. Microscopic images were captured with these slides to understand the activity of HDAC6 toward tubulin/microtubule.

BV2 cells [2] = test: LDH cytotoxicity assay in BV2 cells; format: cell-based, murine
Protocol: (§1) Briefly, for microglia‐related amyloid (Aβ) phagocytosis study, BV2 cells were seeded in a 6‐well confocal dish (400k cells mL^−1) and cultured overnight for ≈90% confluency. […] Then, media were collected to perform the LDH assay for cell cytotoxicity assessment. Cells were washed carefully with PBS (2x) and lysed by adding 200 µL of MPER++ (10 mL MPER with 1% protease cocktail inhibitor and 1% EDTA) in each well. Cell lysates were collected in 1.5 mL Eppendorf tube and centrifuged at 12 000 rpm at 4 °C for 15 min and supernatants were collected for further studies. Total protein was quantified using the BCA protein assay kit (Pierce). Briefly, BV2 cells were cultured following previously published methods and grew in DMEM media containing 10% heat‐inactivated fetal bovine serum, 2 mM L‐Glutamine, and 1% penicillin/streptomycin (Life Technologies). […] Subsequently, media were collected and applied to LDH to assess cell viability; cells were extensively washed with PBS and were lysed in MPER lysis buffer (MPER++) supplemented with EDTA‐free protease inhibitors (Roche), Halt phosphatase inhibitor cocktail (Thermo Fisher Scientific). Lysates were centrifuged as before (12 000 rpm at 4 °C for 15 min) and supernatants were collected for further analysis. […]

BV2 cells [3] = test: Stereomicroscopic images of BV2 cell morphology; format: cell-based, murine
From the text: Stereomicroscopic images were captured before and after the treatment of different concentrations of PB118 on BV2 cells to elucidate the cytotoxicity based on the cellular morphology of BV2 cells by using Invitrogen EVOS XL Core stereo microscope.

BV2 cells [4] = test: Cold depolymerization assay; format: cell-based, murine; conditions: PB118 500 nM 24 h, on ice 10 and 20 min in comparison to 0 min
Protocol: To perform this assay, BV2 cells were seeded and cultured in an 8‐well Labtek chamber slide for overnight (100 k well^−1). […] Then cells were incubated on ice to induce microtubule depolymerization and were fixed using 4% PFA at different time points (0, 10, and 20 min). After that, cells were washed with PBS three times and blocked with blocking buffer (5% Donkey serum with 0.1% Triton‐X‐100 in PBS) and immunostaining was performed with these fixed cells against α‐tubulin (green) and acetylated α‐tubulin (red) antibodies. Appropriate secondary antibodies were used for visualization of these cells and images were captured in a Nikon C2 confocal microscopy.

LPS induced BV2 cells = test: Multiplex MSD-cytokine assay in LPS-induced BV2 cells; format: cell-based, murine; conditions: LPS 10 ng/mL + PB118 500/1000 nM, 24 h, media
Protocol: Briefly, for microglia‐related amyloid (Aβ) phagocytosis study, BV2 cells were seeded in a 6‐well confocal dish (400k cells mL^−1) and cultured overnight for ≈90% confluency. […] Then, media were collected to perform the LDH assay for cell cytotoxicity assessment. Cells were washed carefully with PBS (2x) and lysed by adding 200 µL of MPER++ (10 mL MPER with 1% protease cocktail inhibitor and 1% EDTA) in each well. Cell lysates were collected in 1.5 mL Eppendorf tube and centrifuged at 12 000 rpm at 4 °C for 15 min and supernatants were collected for further studies. Total protein was quantified using the BCA protein assay kit (Pierce). Briefly, BV2 cells were cultured following previously published methods and grew in DMEM media containing 10% heat‐inactivated fetal bovine serum, 2 mM L‐Glutamine, and 1% penicillin/streptomycin (Life Technologies). […] Subsequently, media were collected and applied to LDH to assess cell viability; cells were extensively washed with PBS and were lysed in MPER lysis buffer (MPER++) supplemented with EDTA‐free protease inhibitors (Roche), Halt phosphatase inhibitor cocktail (Thermo Fisher Scientific). Lysates were centrifuged as before (12 000 rpm at 4 °C for 15 min) and supernatants were collected for further analysis.
(§2) MSD immunoassays are quite robust and based on combining multiarray technology and electrochemiluminescence to identify numerous proteins in a single sample.

[5] = tested on: 3D human neural stem cell model of AD (ReNcell VM); test: MSD phospho (Thr231)/total tau and Aβ (6E10) assay in 3D-AD culture; format: cell-based; conditions: 3 weeks
Protocol: (§3) Human precursor ReN cells were used to prepare 3D AD environment following previous work.^[ [30] ^] Briefly, for 3D layers of cells, BD Matrigel stock solution (BD Biosciences) was diluted with ReN cell differentiation medium (in 1:15 dilution) (chilled) followed by vertexing with the cell pellets for 20 s. A final cell concentration of ≈2 × 10^6 cells mL^−1 was used and this cell/ Matrigel mixtures were immediately transferred ([…] in each) into an Optilux clear bottom 96‐well plates (BD Biosciences). A thin layer ([…]) of 3D gels was formed at the bottom of the plates after incubating the plates at 37 °C for 1 h and the media were changed. For differentiation before drug treatment, 3D‐plated cells were cultured for 6 weeks, and the media were changed every 3–4 days. […] The cells were harvested for extraction using a lysis buffer mixture (Lysis 6 buffer with protease inhibitor; 1:100), followed by shaking for 1 h at cold room and centrifugation at 2 k rpm for 30 min. Supernatants were collected and further analyzed by MSD immunoassay kit and western blot analysis.
as §2

[6] = design: method as in PMID 36213537; conditions: human liver microsomes; cited from earlier work
HDAC6 enzyme = conditions: read-out: IC50 for HDAC6; enzyme inhibition assay; cited from earlier work
[7] = Stability in human serum (HPLC); format: in vitro ADME; conditions: 37 °C
46 CNS‐related targets = tested on: 46 CNS‐related targets; design: method as in PMID 36213537; conditions: cited from earlier work
HDAC1 = conditions: read-out: IC50 for HDAC1; enzyme inhibition assay; cited from earlier work
BV2 cells [8] = test: Microglial Aβ phagocytosis, MSD Aβ peptide panel 1 (4G8); format: cell-based, murine; conditions: Aβ42 2 µg/mL + PB118 500 and 1000 nM, 6 h, vs control
Protocol: as §1

BV2 cells [9] = test: Western blot of PB118-treated BV2 cell lysates; format: cell-based, murine; conditions: PB118 500 and 1000 nM, 6 h
Protocol: The previously described WB method was implemented to perform and analyze western blot membrane.^[ [34] ^] […] Proteins were separated by the electrophoresis using the 4–12% Bis‐Tris SDS‐PAGE Gel System (Invitrogen, Thermo Fisher Scientific), followed by membrane transfer to PVDF membranes (Invitrogen, Thermo Fischer scientific). Next, the membranes were blocked for 30 min with the Superblock (Thermo Scientific) and then incubated overnight with primary antibodies following the dilutions mentioned below. The membranes were then washed with TBST (four times) and incubated with appropriate secondary antibodies (1:10 000 dilution) at room temperature for 2 h. Then, membranes were incubated with Supersignal West Femto (Life Technologies), and the images for immunoreactivity were developed and visualized by the LICOR Odyssey Fc. Quantifications of proteins of interest were performed by Image J software.

[10] = tested on: 3D human neural stem cell model of AD (ReNcell VM); test: LDH assay in 3D human neural culture; format: cell-based; conditions: PB118 1 or 5 µM, 3 weeks
Protocol: as §3, with “analysis. The previously reported CytoTox‐ONE assay was performed to analyze cell viability by measuring the release of lactate dehydrogenase (LDH) following the manufacturer's guidelines (Promega; Madison, WI). Briefly, 50 µL of cell culture media was utilized and a 1:1 dilution of substrate was added. […]” for “analysis.”

[11] = tested on: human microglia HMC3 cells; test: LDH assay and stereomicroscopy in HMC3 cells; format: cell-based; conditions: PB118 500 and 1000 nM, 6 h
Protocol: The previously reported CytoTox‐ONE assay was performed to analyze cell viability by measuring the release of lactate dehydrogenase (LDH) following the manufacturer's guidelines (Promega; Madison, WI). Briefly, 50 µL of cell culture media was utilized and a 1:1 dilution of substrate was added. […] Under the influence of the assay's substrate, resazurin was converted to resorufin, its fluorescent form, owing to LDH. The fluorometric results were used to compare the experiment group to the control group to assess the cytotoxicity of treated compounds.

[12] = design: method as in PMID 36213537; conditions: C57BL/6 mice, i.p. 1 mg kg^-1, blood and brain at 30 min, 1 and 4 h; cited from earlier work
[13] = design: method as in PMID 36213537; conditions: cited from earlier work
[14] = higher concentration of PB118 (1 or 5 µM tested)

O=C(NO)c1ccc(CN2CCCCc3ccccc32)c(F)c1 [PB118]
HDAC6 expression (ICC) (BV2 cells [1]; LPS 10 ng/mL + PB118 500 nM): lack of significant change | α-tubulin network (ICC) (BV2 cells [1]; LPS 10 ng/mL + PB118 500 nM): lack of significant change | acetylated tubulin levels (ICC) with or without LPS (BV2 cells [1]; PB118 500 nM with or without LPS 10 ng/mL): no change | acetyl α-tubulin expression (ICC) (BV2 cells [1]; PB118 500 nM, 3 h, vs vehicle): higher compared to vehicle | cell viability (LDH assay) (BV2 cells [2]; LPS 10 ng/mL +/- PB118 500 or 1000 nM, 24 h, treated vs control): No significant difference | cytotoxicity (LDH assay) (BV2 cells [2]; PB118 500 and 1000 nM with or without Aβ42 (2 µg/mL), 6 h): no significant cytotoxicity | cell morphology (stereomicroscopic images) (BV2 cells [3]; LPS +/- PB118, 24 h): no significant difference of cell morphology | cell morphology (microscopic images before and after treatment) (BV2 cells [3]; PB118 with or without Aβ42, 6 h): no significant change in cell morphology | acetylated α-tubulin protein expression in cold depolymerization condition (BV2 cells [4]): significantly higher | IL-12p-70 level (LPS induced BV2 cells): significant reductions | KC/GRO (CXCL1) level (LPS induced BV2 cells): significant reductions | interleukin-6 (IL-6) level (LPS induced BV2 cells): significant reductions | Aβ42 generation ([5]; PB118 1 or 5 µM): significantly reduced | p-tau (Thr231) level [5, 14]: significantly reduced | total tau level [5, 14]: significantly reduced | half-life in human microsomal liver [6]: 1.13 h | pIC50 (HDAC6 enzyme): 8.25 | decay constant in human serum [7]: 6.3e-06 s⁻¹ | mean lifetime in human serum [7]: 43.6 h | compound remaining in human serum ([7]; after 24 h, HPLC): ≈ 57% | half-life (t1/2) in human serum ([7]; calculated by formula of Figure S2b): 30.2 h | half-life at 5 mM ([7]; human, calculated by formula of Figure S2b, read-out: half-life (t1/2) in human serum (converted)): ~30.2 h | off-target binding profile (46 CNS‐related targets): good off‐target binding profile | pIC50 (HDAC1): 5.11 | Aβ42 levels in cell lysates (phagocytosis) (BV2 cells [8]): significant increase | HDAC6 expression (WB, normalized to β-actin) (BV2 cells [9]): non‐significant change | Ac-α-tubulin protein level (WB, normalized to α-tubulin) (BV2 cells [9]; vs control): significant increase | cytotoxicity (LDH assay) [10]: no cytotoxicity | morphology and cytotoxicity (stereomicroscopy, LDH assay) [11]: no detrimental change in morphology or cytotoxicity | BBB crossing (brain/plasma study) [12]: BBB crossing ability | binding with human plasma [13]: 99.4%
